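GI50 = concentration required for 50% inhibition of growth. The concentration for full growth arrest is given as TGI.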
Key:
Assay in all cases: NCI tumour cell line growth inhibition, 384-well format
SK-MEL-28 melanoma = test system: SK-MEL-28 melanoma
OVCAR-4 ovarian = test system: OVCAR-4 ovarian
A549 NSCLC = test system: A549 NSCLC
SF-268 CNS = test system: SF-268 CNS
UACC-257 melanoma = test system: UACC-257 melanoma
MCF7 breast = test system: MCF7 breast
ACHN renal = test system: ACHN renal
CCRF-CEM leukemia = test system: CCRF-CEM leukemia
HL-60(TB) leukemia = test system: HL-60(TB) leukemia
SK-MEL-5 melanoma = test system: SK-MEL-5 melanoma
UO-31 renal = test system: UO-31 renal
DU-145 prostate = test system: DU-145 prostate
MOLT-4 leukemia = test system: MOLT-4 leukemia

SMILES: CC#CC(=O)N1CC[C@@H](n2c(=O)n(-c3ccc(Oc4ccccc4)cc3)c3c(N)ncnc32)C1
- GI50 (SK-MEL-28 melanoma): 68.3 µM
- TGI (SK-MEL-28 melanoma): > 100 µM
- GI50 (OVCAR-4 ovarian): 29.5 µM
- TGI (OVCAR-4 ovarian): > 100 µM
- GI50 (A549 NSCLC): 34.8 µM
- TGI (A549 NSCLC): > 100 µM
- GI50 (SF-268 CNS): 25.1 µM
- TGI (SF-268 CNS): > 65 µM
- GI50 (UACC-257 melanoma): 19.7 µM
- TGI (UACC-257 melanoma): 67.2 µM
- TGI (MCF7 breast): 80.6 µM
- GI50 (ACHN renal): 31.6 µM
- TGI (ACHN renal): > 100 µM
- GI50 (CCRF-CEM leukemia): 11.4 µM
- TGI (CCRF-CEM leukemia): 23.7 µM
- GI50 (HL-60(TB) leukemia): 13.9 µM
- TGI (HL-60(TB) leukemia): 26.9 µM
- GI50 (SK-MEL-5 melanoma): 17.7 µM
- TGI (SK-MEL-5 melanoma): 47 µM
- GI50 (UO-31 renal): 31.8 µM
- TGI (UO-31 renal): > 100 µM
- GI50 (DU-145 prostate): 25.5 µM
- TGI (DU-145 prostate): > 70.2 µM
- GI50 (MOLT-4 leukemia): 3.13 µM
- TGI (MOLT-4 leukemia): 12.7 µM
